melting point: 237 °C
Structure (SMILES): O=[N+]([O-])c1ccc(-c2c(Cl)nc3ncnn3c2NCC(F)(F)F)cc1

From patent publication US7084146B2 (dated 2006)
